{"source": "patent US10047087B2", "about": "“Substituted pyrazolo[1,5-A] pyridine as tropomyosin receptor kinase (TrK) inhibitors” (Dr. Reddy's Laboratories Ltd., priority 2011, dated 2018)", "target": "T1, TrkA kinase (Homo sapiens, UniProt P04629)", "T1 construct": "purchased Upstate, USA", "T1 sequence (P04629 33-796)": "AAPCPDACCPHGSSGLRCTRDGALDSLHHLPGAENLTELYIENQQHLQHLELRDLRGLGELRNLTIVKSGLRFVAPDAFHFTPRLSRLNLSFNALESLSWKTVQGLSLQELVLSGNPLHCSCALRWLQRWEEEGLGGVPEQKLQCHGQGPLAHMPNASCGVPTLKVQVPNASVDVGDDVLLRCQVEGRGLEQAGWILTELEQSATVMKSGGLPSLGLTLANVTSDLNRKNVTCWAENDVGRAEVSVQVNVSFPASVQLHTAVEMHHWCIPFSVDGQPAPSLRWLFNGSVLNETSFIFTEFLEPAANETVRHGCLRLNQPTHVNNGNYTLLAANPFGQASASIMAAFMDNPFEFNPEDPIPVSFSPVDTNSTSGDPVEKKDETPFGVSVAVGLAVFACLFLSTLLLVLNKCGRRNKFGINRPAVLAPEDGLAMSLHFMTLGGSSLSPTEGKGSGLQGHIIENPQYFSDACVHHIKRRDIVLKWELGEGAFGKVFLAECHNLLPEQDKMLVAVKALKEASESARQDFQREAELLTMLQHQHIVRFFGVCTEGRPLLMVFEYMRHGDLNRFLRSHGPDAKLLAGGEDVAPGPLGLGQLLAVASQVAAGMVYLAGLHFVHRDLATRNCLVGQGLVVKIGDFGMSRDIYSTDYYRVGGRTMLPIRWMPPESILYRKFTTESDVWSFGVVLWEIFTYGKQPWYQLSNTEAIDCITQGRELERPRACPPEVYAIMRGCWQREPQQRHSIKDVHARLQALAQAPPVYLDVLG", "test": "In vitro TrkA inhibitory activity using TR-FRET assay", "type": "biochemical", "conditions": "5 ng TrkA, 500 μM ATP", "description": "Determination of In Vitro TrkA Inhibitory Activity Using TR-FRET Assay\nCompounds were screened in the TR-FRET assay with TrkA kinase. 5 ng of TrkA [Upstate, USA] kinase was used for assay. The compound was incubated with the kinase for 30 minutes at 20-35° C. After the incubation, substrate mix [40 nM Ultra light poly GT (Perkin Elmer, USA) and 500 μM ATP] was added. The above reaction was stopped by the addition of 40 mM EDTA after 30 minutes. The Eu-labelled antiphospho-tyrosine antibody [Perkin Elmer, USA] was added at 0.5 nM and the fluorescence emission at 615 nm/665 nm [excitation at 340 nm] was measured. The compounds were initially screened at 100 nM, 1 μM and 10 μM concentrations. The potent compounds with >25% inhibition at 1 μM of TrkA were taken for the full dose response studies. The final DMSO concentration in the assay was […]. For IC50 determination, ⅓^rd serial dilution was made from the 20 mM DMSO stock solution. 2 μl of these were transferred to the test wells containing 20 μl reaction mixture [Total reaction volume 22 μl]. The fluorescence was measured in Perkin Elmer Wallac 1420 Multilabel Counter Victor 3. The IC50 was determined by fitting the dose response data to a sigmoidal curve fitting equation using GraphPad Prism software version 5.", "key": {"[1]": {"conditions": "read-out: TrkA inhibition in-vitro IC50"}, "[2]": {"conditions": "both bounds given in nm, read-out: TrkA inhibitory activity in-vitro IC50"}, "[3]": {"conditions": "lower bound in nm [sic], upper bound in μM, read-out: TrkA inhibitory activity in-vitro IC50"}}, "note": "Like-named read-outs stand apart in the source and are kept apart here.", "data": [{"molecule": "O=C(NS(=O)(=O)c1ccc2c(c1)OCCO2)c1cnn2ccc(N3CCC[C@@H]3c3cc(F)ccc3F)cc12", "note": "[Example 34, (R)-5-(2-(2,5-difluorophenyl)pyrrolidin-1-yl)-N-((2,3-dihydrobenzo[b][1,4]dioxin-6-yl)sulfonyl)pyrazolo [1,5-a]pyridine-3-carboxamide]", "values": [{"measurement": "IC50", "setting": "[1]", "result": "0.05 to 0.1", "unit": "µM"}]}, {"molecule": "CCC1(S(=O)(=O)NC(=O)c2cnn3ccc(N4CCC[C@@H]4c4cc(F)ccc4F)cc23)CC1", "note": "[Example 36, (R)-5-(2-(2,5-difluorophenyl)pyrrolidin-1-yl)-N-((1-ethylcyclopropyl)sulfonyl) pyrazolo[1,5-a]pyridine-3-carboxamide]", "values": [{"measurement": "IC50", "setting": "[2]", "result": "0.1 to 0.5", "unit": "µM"}]}, {"molecule": "CC(C)(C)CS(=O)(=O)NC(=O)c1cnn2ccc(N3CCC[C@@H]3c3cc(F)ccc3F)cc12", "note": "[Example 37, (R)-5-(2-(2,5-difluorophenyl)pyrrolidin-1-yl)-N-(neopentylsulfonyl) pyrazolo[1,5-a]pyridine-3-carboxamide]", "values": [{"measurement": "IC50", "setting": "[2]", "result": "0.1 to 0.5", "unit": "µM"}]}, {"molecule": "O=C(NS(=O)(=O)C1(Cc2ccc(F)cc2)CC1)c1cnn2ccc(N3CCC[C@@H]3c3cc(F)ccc3F)cc12", "note": "[Example 41, (R)-5-(2-(2,5-difluorophenyl)pyrrolidin-1-yl)-N-((1-(4-fluorobenzyl)cyclopropyl)sulfonyl) pyrazolo[1,5-a]pyridine-3-carboxamide]", "values": [{"measurement": "IC50", "setting": "[1]", "result": "≤ 0.05", "unit": "µM"}]}, {"molecule": "CC(C)(C)S(=O)(=O)NC(=O)c1cnn2ccc(N3CCC[C@@H]3c3cncc(F)c3)cc12", "note": "[Example 44, (R)-N-(tert-butylsulfonyl)-5-(2-(5-fluoropyridin-3-yl)pyrrolidin-1-yl)pyrazolo[1,5-a] pyridine-3-carboxamide]", "values": [{"measurement": "IC50", "setting": "[1]", "result": "0.05 to 0.1", "unit": "µM"}]}, {"molecule": "CC(C)(C)S(=O)(=O)NC(=O)c1cnn2ccc(N3CCC[C@@H]3c3cc(F)ccc3Cl)cc12", "note": "[Example 47, (R)-N-(tert-butylsulfonyl)-5-(2-(2-chloro-5-fluorophenyl)pyrrolidin-1-yl)pyrazolo[1,5-a]pyridine-3-carboxamide]", "values": [{"measurement": "IC50", "setting": "[1]", "result": "0.05 to 0.1", "unit": "µM"}]}, {"molecule": "CC(C)(C)S(=O)(=O)NC(=O)c1cnn2ccc(N3C[C@H](O)C[C@@H]3c3cc(F)ccc3F)cc12", "note": "[Example 48, N-(tert-butylsulfonyl)-5-((2R,4R)-2-(2,5-difluorophenyl)-4-hydroxypyrrolidin-1-yl)pyrazolol[1,5-a]pyridine-3-carboxamide]", "values": [{"measurement": "IC50", "setting": "[3]", "result": "0.5 to 1", "unit": "µM"}]}, {"molecule": "CC(C)(C)S(=O)(=O)NC(=O)c1cnn2ccc(N3CCC[C@@H]3c3cc(F)ccc3OCC(F)(F)F)cc12", "note": "[Example 49, (R)-N-(tert-butylsulfonyl)-5-(2-(5-fluoro-2-(2,2,2-trifluoroethoxy)phenyl)pyrrolidin-1-yl)pyrazolo[1,5-a]pyridine-3-carboxamide]", "values": [{"measurement": "IC50", "setting": "[2]", "result": "0.1 to 0.5", "unit": "µM"}]}, {"molecule": "CC(C)(C)S(=O)(=O)NC(=O)c1cnn2ccc(N3CCC[C@@H]3c3cc(F)ccc3-c3ccc(F)cc3)cc12", "note": "[Example 54, (R)-N-(tert-butylsulfonyl)-5-(2-(4,4′-difluoro-[1,1′-biphenyl]-2-yl)pyrrolidin-l-yl)pyrazolo[1,5-a]pyridine-3-carboxamide]", "values": [{"measurement": "IC50", "setting": "[2]", "result": "0.1 to 0.5", "unit": "µM"}]}, {"molecule": "CC(C)(C)S(=O)(=O)NC(=O)c1cnn2ccc(N3C[C@H](F)C[C@@H]3c3cc(F)ccc3F)cc12", "note": "[Example 58, N-(tert-butylsulfonyl)-5-((2R,4R)-2-(2,5-difluorophenyl)-4-fluoropyrrolidin-1-yl) pyrazolo[1,5-a]pyridine-3-carboxamide]", "values": [{"measurement": "IC50", "setting": "[3]", "result": "0.5 to 1", "unit": "µM"}]}, {"molecule": "CC(C)(C)S(=O)(=O)NC(=O)c1cnn2ccc(N3CCC[C@@H]3c3cc(F)ccc3OC3CCOC3)cc12", "note": "(stereo partly drawn) [Example 60, N-(tert-butylsulfonyl)-5-((2R)-2-(5-fluoro-2-((tetrahydrofuran-3-yl)oxy)phenyl)pyrrolidin-1-yl)pyrazolo[1,5-a]pyridine-3-carboxamide]", "values": [{"measurement": "IC50", "setting": "[1]", "result": "0.05 to 0.1", "unit": "µM"}]}, {"molecule": "CC(C)(C)S(=O)(=O)NC(=O)c1cnn2ccc(N3CCC[C@@H]3c3cc(F)ccc3F)c(F)c12", "note": "[Example 61, (R)-N-(tert-butylsulfonyl)-5-(2-(2,5-difluorophenyl)pyrrolidin-1-yl)-4-fluoro pyrazolo[1,5-a] pyridine-3-carboxamide]", "values": [{"measurement": "IC50", "setting": "[2]", "result": "0.1 to 0.5", "unit": "µM"}]}, {"molecule": "CC(C)(C)S(=O)(=O)NC(=O)c1cnn2ccc(N3CCC[C@@H]3c3cc(F)ccc3OC(F)F)cc12", "note": "[Example 63, (R)-N-(tert-butylsulfonyl)-5-(2-(2-(difluoromethoxy)-5-fluorophenyl)pyrrolidin-1-yl) pyrazolo[1,5-a]pyridine-3-carboxamide]", "values": [{"measurement": "IC50", "setting": "[1]", "result": "0.05 to 0.1", "unit": "µM"}]}, {"molecule": "CC(C)(C)S(=O)(=O)NC(=O)c1cnn2ccc(N3CCC[C@@H]3c3cc(F)cc(F)c3)cc12", "note": "[Example 66, (R)-N-(tert-butylsulfonyl)-5-(2-(3,5-difluorophenyl)pyrrolidin-1-yl)pyrazolo[1,5-a]pyridine-3-carboxamide]", "values": [{"measurement": "IC50", "setting": "[2]", "result": "0.1 to 0.5", "unit": "µM"}]}, {"molecule": "COCCOc1cc(F)cc([C@H]2CCCN2c2ccn3ncc(C(=O)NS(=O)(=O)C(C)(C)C)c3c2)c1", "note": "[Example 67, (R)-N-(tert-butylsulfonyl)-5-(2-(3-fluoro-5-(2-methoxyethoxy)phenyl)pyrrolidin-1-yl) pyrazolo[1,5-a]pyridine-3-carboxamide]", "values": [{"measurement": "IC50", "setting": "[3]", "result": "0.5 to 1", "unit": "µM"}]}, {"molecule": "CC(C)(C)S(=O)(=O)NC(=O)c1cnn2ccc(N3CCC[C@@H]3c3cc(F)cc(OC4CCOC4)c3)cc12", "note": "(stereo partly drawn) [Example 68, N-(tert-butylsulfonyl)-5-((2R)-2-(3-fluoro-5-((tetrahydrofuran-3-yl)oxy)phenyl)pyrrolidin-1-yl)pyrazolo[1,5-a]pyridine-3-carboxamide]", "values": [{"measurement": "IC50", "setting": "[3]", "result": "0.5 to 1", "unit": "µM"}]}, {"molecule": "O=C(NS(=O)(=O)c1ccc(F)cc1)c1cnn2ccc(N3CCC[C@@H]3c3cc(F)cc(F)c3)cc12", "note": "[Example 69, (R)-5-(2-(3,5-difluorophenyl)pyrrolidin-1-yl)-N-((4-fluorophenyl)sulfonyl)pyrazolo[1,5-a]pyridine-3-carboxamide]", "values": [{"measurement": "IC50", "setting": "[3]", "result": "0.5 to 1", "unit": "µM"}]}, {"molecule": "O=C(NS(=O)(=O)c1ccc(N2CC[C@H](O)C2)cc1)c1cnn2ccc(N3CCC[C@@H]3c3cc(F)cc(F)c3)cc12", "note": "[Example 70, 5-((R)-2-(3,5-difluorophenyl)pyrrolidin-1-yl)-N-((4-((S)-3-hydroxypyrrolidin-1-yl)phenyl)sulfonyl)pyrazolo[1,5-a] pyridine-3-carboxamide]", "values": [{"measurement": "IC50", "setting": "[1]", "result": "≤ 0.05", "unit": "µM"}]}, {"molecule": "CC(C)S(=O)(=O)NC(=O)c1cnn2ccc(N3CCC[C@@H]3c3cc(F)cc(F)c3)cc12", "note": "[Example 71, (R)-5-(2-(3,5-difluorophenyl)pyrrolidin-1-yl)-N-(isopropylsulfonyl)pyrazolo[1,5-a] pyridine-3-carboxamide]", "values": [{"measurement": "IC50", "setting": "[2]", "result": "0.1 to 0.5", "unit": "µM"}]}, {"molecule": "O=C(NS(=O)(=O)c1ccc(-n2cncn2)nc1)c1cnn2ccc(N3CCC[C@@H]3c3cc(F)cc(F)c3)cc12", "note": "[Example 72, (R)-N-((6-(1H-1,2,4-triazol-1-yl)pyridin-3-yl)sulfonyl)-5-(2-(3,5-difluorophenyl)pyrrolidin-1-yl)pyrazolo[1,5-a]pyridine-3-carboxamide]", "values": [{"measurement": "IC50", "setting": "[2]", "result": "0.1 to 0.5", "unit": "µM"}]}, {"molecule": "O=C(NS(=O)(=O)c1ccc(N2CC[C@H](O)C2)nc1)c1cnn2ccc(N3CCC[C@@H]3c3cc(F)cc(F)c3)cc12", "note": "[Example 73, 5-((R)-2-(3,5-difluorophenyl)pyrrolidin-1-yl)-N-((6-((S)-3-hydroxypyrrolidin-1-yl)pyridin-3-yl)sulfonyl)pyrazolo[1,5-a] pyridine-3-carboxamide]", "values": [{"measurement": "IC50", "setting": "[1]", "result": "≤ 0.05", "unit": "µM"}]}, {"molecule": "CN(CC1CC1)S(=O)(=O)NC(=O)c1cnn2ccc(N3CCC[C@@H]3c3cc(F)ccc3F)cc12", "note": "[Example 80, (R)-N-(N-(cyclopropylmethyl)-N-methylsulfamoyl)-5-(2-(2,5-difluorophenyl)pyrrolidin-1-yl)pyrazolo[1,5-a]pyridine-3-carboxamide]", "values": [{"measurement": "IC50", "setting": "[1]", "result": "≤ 0.05", "unit": "µM"}]}, {"molecule": "CCN(CC)S(=O)(=O)NC(=O)c1cnn2ccc(N3CCC[C@@H]3c3cc(F)ccc3F)cc12", "note": "[Example 81, (R)-N-(N,N-diethylsulfamoyl)-5-(2-(2,5-difluorophenyl)pyrrolidin-1-yl)pyrazolo[1,5-a]pyridine-3-carboxamide]", "values": [{"measurement": "IC50", "setting": "[1]", "result": "≤ 0.05", "unit": "µM"}]}, {"molecule": "O=C(NS(=O)(=O)N1CCOCC1)c1cnn2ccc(N3CCC[C@@H]3c3cc(F)ccc3F)cc12", "note": "[Example 84, (R)-5-(2-(2,5-difluorophenyl)pyrrolidin-1-yl)-N-(morpholinosulfonyl) pyrazolo[1,5-a]pyridine-3-carboxamide]", "values": [{"measurement": "IC50", "setting": "[1]", "result": "≤ 0.05", "unit": "µM"}]}, {"molecule": "O=C(NS(=O)(=O)N1CCCC1)c1cnn2ccc(N3CCC[C@@H]3c3cc(F)ccc3F)cc12", "note": "[Example 85, (R)-5-(2-(2,5-difluorophenyl)pyrrolidin-1-yl)-N-(pyrrolidin-1-ylsulfonyl)pyrazolo[1,5-a]pyridine-3-carboxamide]", "values": [{"measurement": "IC50", "setting": "[1]", "result": "≤ 0.05", "unit": "µM"}]}, {"molecule": "CN1CCN(S(=O)(=O)NC(=O)c2cnn3ccc(N4CCC[C@@H]4c4cc(F)ccc4F)cc23)CC1", "note": "[Example 86, (R)-5-(2-(2,5-difluorophenyl)pyrrolidin-1-yl)-N-((4-methylpiperazin-1-yl)sulfonyl)pyrazolo[1,5-a]pyridine-3-carboxamide]", "values": [{"measurement": "IC50", "setting": "[2]", "result": "0.1 to 0.5", "unit": "µM"}]}, {"molecule": "CCN(CC)S(=O)(=O)NC(=O)c1cnn2ccc(N3CCC[C@@H]3c3cc(F)ccc3OC)cc12", "note": "[Example 87, (R)-N-(N,N-diethylsulfamoyl)-5-(2-(5-fluoro-2-methoxyphenyl)pyrrolidin-1-yl) pyrazolo[1,5-a]pyridine-3-carboxamide]", "values": [{"measurement": "IC50", "setting": "[1]", "result": "≤ 0.05", "unit": "µM"}]}]}
